Counter-ions that a name gives are not always drawn. ± gives the standard error.
Columns and labels:
621-102 (TSC2-deficient) [1] = test: relative viability vs DMSO; higher = less cytotoxic; settings: serum: 10% FBS, 72 h
621-103 (TSC2-rescued) = test: as above; settings: serum: 10% FBS, 72 h
621-102 (TSC2-deficient) [2] = test: relative viability vs DMSO (fraction); higher = less cytotoxic; settings: serum: 0.1% FBS, 72 h
UMB1949 (TSC2-deficient) = test: as above; settings: serum: 0.1% FBS, 72 h;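 also: renal angiomyolipoma cell lines screened in 384-well plates, viability normalized per plate to DMSO-treated cells, each plate carrying 50 nM rapamycin and 1 µM staurosporine controls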

Row | SMILES | relative viability (621-102 (TSC2-deficient) [1]; 0.0001 µM) | relative viability (621-102 (TSC2-deficient) [1]; 0.001 µM) | relative viability (621-102 (TSC2-deficient) [1]; 0.01 µM) | relative viability (621-102 (TSC2-deficient) [1]; 0.1 µM) | relative viability (621-102 (TSC2-deficient) [1]; 1 µM) | relative viability (621-102 (TSC2-deficient) [1]; 10 µM) | relative viability (621-103 (TSC2-rescued); 0.0001 µM) | relative viability (621-103 (TSC2-rescued); 0.001 µM) | relative viability (621-103 (TSC2-rescued); 0.01 µM) | relative viability (621-103 (TSC2-rescued); 0.1 µM) | relative viability (621-103 (TSC2-rescued); 1 µM) | relative viability (621-103 (TSC2-rescued); 10 µM) | relative viability (621-102 (TSC2-deficient) [2]; 0.0128 nM) | relative viability (621-102 (TSC2-deficient) [2]; 0.064 nM) | relative viability (621-102 (TSC2-deficient) [2]; 0.32 nM) | relative viability (621-102 (TSC2-deficient) [2]; 1.6 nM) | relative viability (621-102 (TSC2-deficient) [2]; 8 nM) | relative viability (621-102 (TSC2-deficient) [2]; 40 nM) | relative viability (621-102 (TSC2-deficient) [2]; 200 nM) | relative viability (621-102 (TSC2-deficient) [2]; 1000 nM) | relative viability (621-102 (TSC2-deficient) [2]; 5000 nM) | relative viability (UMB1949 (TSC2-deficient); 0.0128 nM) | relative viability (UMB1949 (TSC2-deficient); 0.064 nM) | relative viability (UMB1949 (TSC2-deficient); 0.32 nM) | relative viability (UMB1949 (TSC2-deficient); 1.6 nM) | relative viability (UMB1949 (TSC2-deficient); 8 nM) | relative viability (UMB1949 (TSC2-deficient); 40 nM) | relative viability (UMB1949 (TSC2-deficient); 200 nM) | relative viability (UMB1949 (TSC2-deficient); 1000 nM) | relative viability (UMB1949 (TSC2-deficient); 5000 nM)
1 | COC1=CC(c2cc3ccccc3[nH]2)=N/C1=C\c1[nH]c(C)cc1C [Obatoclax Mesylate] | 116.6 ± 0.46% | 115 ± 5.2% | 101.8 ± 0.93% | 54 ± 2.3% | 16.9 ± 0.25% | 5.18 ± 0.8% | 102.9 ± 0.9% | 99.7 ± 1.6% | 96.8 ± 0.97% | 68.9 ± 2% | 28.8 ± 0.29% | 5.57 ± 0.73% | 1.24 | 0.96 | 1.05 | 1.17 | 1.06 | 0.847 | 0.128 | 0.00422 | 0.00238 | 1.1 | 1.01 | 1.06 | 1.08 | 1 | 0.616 | 0.0115 | 0.00837 | 0.0101
2 | Nc1nc2[nH]cc(CCc3ccc(C(=O)N[C@@H](CCC(=O)O)C(=O)O)cc3)c2c(=O)[nH]1 [Pemetrexed disodium] | 107 ± 2.3% | 101 ± 4.2% | 107 ± 5.4% | 93.8 ± 4.3% | 94.1 ± 6.1% | 81.27 ± 0.71% | 102 ± 2.4% | 92.3 ± 6.5% | 102 ± 1.6% | 106 ± 1.4% | 104.4 ± 0.47% | 88.6 ± 7.4% | 1.25 | 1.15 | 1.17 | 1.17 | 1.09 | 0.126 | 0.0307 | 0.0251 | 0.0247 | 1.05 | 0.979 | 1.03 | 0.984 | 1.02 | 0.0167 | 0.00471 | 0.00243 | 0.000722
